According to US9839642B2, “Beta-tetrazolyl-propionic acids as metallo-beta-lactamase inhibitors” (priority 2014, dated 2017):
Like-named read-outs stand apart in the source and are kept apart here.

Columns and labels:
[1] = system: Escherichia coli expressing NDM-1 (CLB30005); assay: Antibiotic potentiation activity: synergistic concentration (MITC95) with imipenem, growth by OD600; format: cell-based
Outline: (§1)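 Colonies from overnight agar plates (35 °C) were suspended in saline and diluted 1:100 into 1.1× CAMHB. Inhibitor (final 200 μM to 0.195 μM) was combined with imipenem at 1 or 4 μg/ml, incubated 22–24 h at 35 °C, and absorbance read; MITC95 is the lowest inhibitor concentration giving 95% growth inhibition.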

[2] = system: Klebsiella pneumoniae expressing VIM-1 (IHMA599644); assay: as above; format: cell-based
Outline: as §1

[3] = system: Serratia marcescens expressing IMP-1 (CL5741); assay: as above; format: cell-based
Outline: as §1

VIM-1 = VIM-1 (Pseudomonas aeruginosa, UniProt A0A0F7KYQ8); assay: Enzyme activity: determination of IC50, fluorescence assay with CCF2-FA substrate; format: biochemical; conditions: CCF2-FA 1.25 μM, 2 hours at 25° C.
Outline: (§2)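 Final enzyme levels differed by target: 1 pM NDM-1, 2 pM IMP-1, 30 pM VIM-1. Each was incubated 2 hours at 25° C with test compound and 1.25 μM CCF2-FA, and 460 nm fluorescence (405 nm excitation) was fitted by 4-parameter curve to obtain IC50.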

IMP-1 = IMP-1 (Serratia marcescens, UniProt P52699); assay: as above; format: biochemical; conditions: CCF2-FA 1.25 μM, 2 hours at 25° C.
Sequence of IMP-1 (P52699 19-246, looked up, species assumed): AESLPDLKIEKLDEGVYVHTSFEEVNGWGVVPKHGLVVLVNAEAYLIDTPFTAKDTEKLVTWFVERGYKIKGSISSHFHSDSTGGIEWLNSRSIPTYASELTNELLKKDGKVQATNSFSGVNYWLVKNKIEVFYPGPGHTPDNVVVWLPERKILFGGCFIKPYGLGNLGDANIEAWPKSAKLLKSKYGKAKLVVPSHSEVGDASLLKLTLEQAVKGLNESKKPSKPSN
Outline: as §2

NDM-1 = NDM-1 (Klebsiella pneumoniae, UniProt C7C422); assay: as above; format: biochemical; conditions: CCF2-FA 1.25 μM, 2 hours at 25° C.
Sequence of NDM-1 (C7C422 29-270, looked up, species assumed): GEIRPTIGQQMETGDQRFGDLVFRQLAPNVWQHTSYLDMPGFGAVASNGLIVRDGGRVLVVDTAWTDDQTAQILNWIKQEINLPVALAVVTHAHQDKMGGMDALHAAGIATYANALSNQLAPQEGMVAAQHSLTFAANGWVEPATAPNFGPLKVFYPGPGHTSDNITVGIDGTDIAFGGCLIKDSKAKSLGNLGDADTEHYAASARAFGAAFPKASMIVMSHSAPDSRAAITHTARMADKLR
Outline: as §2

[4] = system: Escherichia coli expressing NDM-1 (CLB30016); assay: Antibiotic potentiation activity: synergistic concentration (MITC95) with imipenem, growth by OD600; format: cell-based
Outline: as §1

[5] = E. coli CLB30005 (NDM-1), 95% inhibition of growth
[6] = K. pneumoniae IHMA599644 (VIM-1), 95% inhibition of growth
[7] = S. marcescens CL5741 (IMP-1), 95% inhibition of growth
[8] = VIM-1 enzyme 30 pM, read-out: VIM1 IC50
[9] = IMP-1 enzyme 2 pM, read-out: IMP1 IC50
[10] = NDM-1 enzyme 1 pM, read-out: NDM1 IC50
[11] = 95% inhibition of bacterial growth, strain CLB30005
[12] = 95% inhibition of bacterial growth, strain IHMA599644
[13] = 95% inhibition of bacterial growth, strain CL5741
[14] = enzyme 30 pM, read-out: VIM1 IC50
[15] = enzyme 2 pM, read-out: IMP1 IC50
[16] = enzyme 1 pM, read-out: NDM1 IC50
[17] = E. coli CLB30016 (NDM-1), 95% inhibition of growth

Row | SMILES | NDM1 EC30005 MITC95 [1, 5] | VIM1 KP599644 MITC95 [2, 6] | IMP1 SM5741 MITC95 [3, 7] | IC50 (VIM-1; [8]) | IC50 (IMP-1; [9]) | IC50 (NDM-1; [10]) | NDM1 EC30005 MITC95 [1, 11] | VIM1 KP599644 MITC95 [2, 12] | IMP1 SM5741 MITC95 [3, 13] | IC50 (VIM-1; [14]) | IC50 (IMP-1; [15]) | IC50 (NDM-1; [16]) | IC50 (VIM-1; VIM1 IC50, enzyme 30 pM) | IC50 (IMP-1; IMP1 IC50, enzyme 2 pM) | IC50 (NDM-1; NDM1 IC50, enzyme 1 pM) | NDM1 EC30016 MITC95 [4, 17] | NDM1 EC30016 MITC95 ([4]; 95% inhibition of bacterial growth, strain CLB30016)
1 | CCC[C@H](C(=O)O)[C@H](Cc1ccc(-c2ccc(-c3nnn[nH]3)cc2)cc1)c1nnn[nH]1 [Example 246, (2S)-2-{(1S)-1-(1H-tetrazol-5-yl)-2-[4′-(1H-tetrazol-5-yl)biphenyl-4-yl]ethyl}pentanoic acid] | 38 µM | 100 µM | 6.2 µM | 2.2 nM | 9.7 nM | 1.1 nM | – | – | – | – | – | – | – | – | – | – | –
2 | CCC[C@H](C(=O)O)[C@H](Cc1ccc(-c2cccc(CN)c2)cc1)c1nn[nH]n1 [Example 210, (2S)-2-[(1S)-2-[3′-(aminomethyl)biphenyl-4-yl]-1-(2H-tetrazol-5-yl)ethyl]pentanoic acid] | – | – | – | – | – | – | 6.2 µM | 18.8 µM | 12.5 µM | 8.2 nM | 130 nM | 100 nM | – | – | – | – | –
3 | CCC[C@H](C(=O)O)[C@H](Cc1ccc(-c2ccc3c(c2)CNC3)nc1)c1nnn[nH]1 [Example 95, 5-(5-((2S,3S)-3-carboxy-2-(1H-tetrazol-5-yl)hexyl)pyridin-2-yl)isoindolin-2-ium] | – | – | – | – | – | – | 3.1 µM | 12.5 µM | 50 µM | 6.5 nM | 2500 nM | 160 nM | – | – | – | – | –
4 | CCCC[C@@H](C(=O)O)[C@@H](Cc1ccc(-c2cnn(-c3ccccc3)c2)cc1)c1nn[nH]n1 [Example 187, (2R)-2-[(1R)-2-[4-(1-phenyl-1H-pyrazol-4-yl)phenyl]-1-(2H-tetrazol-5-yl)ethyl]hexanoic acid] | – | – | – | – | – | – | >200 µM | >200 µM | 103 µM | 140 nM | 180 nM | 980 nM | – | – | – | – | –
5 | COCCC[C@H](C(=O)O)[C@H](Cc1ccccc1)c1nnn[nH]1 [Example 9, (2S)-5-methoxy-2-[(1S)-2-phenyl-1-(1H-tetrazol-5-yl)ethyl]pentanoic acid] | – | – | – | – | – | – | 31 µM | 200 µM | 25 µM | 63 nM | 850 nM | 97 nM | – | – | – | – | –
6 | CCC[C@H](C(=O)O)[C@H](Cc1ccc(-c2cn(C)c(=O)n(C)c2=O)cc1)c1nn[nH]n1 [Example 212, (2S)-2-[(1S)-2-[4-(1,3-dimethyl-2,4-dioxo-1,2,3,4-tetrahydropyrimidin-5-yl)phenyl]-1-(2H-tetrazol-5-yl)ethyl]pentanoic acid] | – | – | – | – | – | – | 18.8 µM | 150 µM | 18.8 µM | 15 nM | 91 nM | 31 nM | – | – | – | – | –
7 | CCC[C@H](C(=O)O)[C@H](Cc1ccc(-c2ccc(C(C)(C)O)nc2)cc1)c1nn[nH]n1 [Example 213, (2S)-2-[(1S)-2-{4-[6-(1-hydroxy-1-methylethyl)pyridin-3-yl]phenyl}-1-(2H-tetrazol-5-yl)ethyl]pentanoic acid] | – | – | – | – | – | – | 9.4 µM | 75 µM | 18.8 µM | 17 nM | 120 nM | 28 nM | – | – | – | – | –
8 | CCC[C@H](C(=O)O)[C@H](Cc1ccc(-c2ccc3c(c2)CNC3)cc1)c1nnn[nH]1 [Example 245, (2S)-2-[(1S)-2-[4-(2,3-dihydro-1H-isoindol-5-yl)phenyl]-1-(1H-tetrazol-5-yl)ethyl]pentanoic acid] | 9.4 µM | 25 µM | 6.2 µM | 3.7 nM | 85 nM | 57 nM | – | – | – | – | – | – | – | – | – | – | –
9 | CCC[C@H](C(=O)O)[C@H](Cc1ccc(C(N)=O)cc1)c1nn[nH]n1 [Example 45, (S)-2-((S)-2-(4-carbamoylphenyl)-1-(2H-tetrazol-5-yl)ethyl)pentanoic acid] | – | – | – | – | – | – | 4.2 µM | 25 µM | 37.5 µM | 3.3 nM | 850 nM | 93 nM | – | – | – | – | –
10 | CCC[C@H](C(=O)O)[C@H](Cc1ccc(-c2cccc3c2CNC3=O)cc1)c1nnn[nH]1 [Example 238, (2S)-2-[(1S)-2-[4-(1-oxo-2,3-dihydro-1H-isoindol-4-yl)phenyl]-1-(1H-tetrazol-5-yl)ethyl]pentanoic acid] | – | – | – | – | – | – | 50 µM | 200 µM | 6.2 µM | 1.7 nM | 49 nM | 6.5 nM | – | – | – | – | –
11 | CCCCC[C@H](C(=O)O)[C@H](Cc1ccc2c(c1)OCO2)c1nnn[nH]1 [Example 39, (2S)-2-[(1S)-2-(1,3-benzodioxol-5-yl)-1-(1H-tetrazol-5-yl)ethyl]heptanoic acid] | – | – | – | – | – | – | 75 µM | 100 µM | >200 µM | 11 nM | 210 nM | 86 nM | – | – | – | – | –
12 | CCCC[C@@H](C(=O)O)[C@@H](Cc1ccc(Br)cc1)c1nnn[nH]1 [Example 30, (R)-2-((R)-2-(4-bromophenyl)-1-(1H-tetrazol-5-yl)ethyl)hexanoic acid] | – | – | – | – | – | – | >200 µM | >200 µM | 50 µM | – | – | – | 240 nM | 220 nM | 4700 nM | – | –
13 | CCC[C@H](C(=O)O)[C@H](Cc1ccc(-c2ccc(CO)cc2)cc1)c1nn[nH]n1 [Example 211, (2S)-2-[(1S)-2-[4′-(hydroxymethyl)biphenyl-4-yl]-1-(2H-tetrazol-5-yl)ethyl]pentanoic acid] | – | – | – | – | – | – | 3.1 µM | 25 µM | 2.3 µM | 3.4 nM | 20 nM | 12 nM | – | – | – | – | –
14 | C[C@@H](c1ccccc1)[C@H](c1nnn[nH]1)[C@H](CCF)C(=O)O [Example 28, (2S,3S,4R)-2-(2-fluoroethyl)-4-phenyl-3-(1H-tetrazol-5-yl)pentanoic acid] | – | – | – | – | – | – | 200 µM | >200 µM | >200 µM | 190 nM | 1800 nM | 310 nM | – | – | – | – | –
15 | CC(C)[C@H](C(=O)O)[C@H](Cc1ccc(C2=CCNCC2)cc1)c1nnn[nH]1 [Example 59, (2S,3S)-2-isopropyl-4-(4-(1,2,3,6-tetrahydropyridin-4-yl)phenyl)-3-(1H-tetrazol-5-yl)butanoic acid] | – | – | – | – | – | – | 12.5 µM | 150 µM | 56.2 µM | 10 nM | 55 nM | – | – | – | 9 nM | – | –
16 | CCC[C@H](C(=O)O)[C@H](Cc1ccc(-c2ccc(N)nc2)cc1)c1nn[nH]n1 [Example 200, (2S)-2-[(1S)-2-[4-(6-aminopyridin-3-yl)phenyl]-1-(2H-tetrazol-5-yl)ethyl]pentanoic acid] | – | – | – | – | – | – | 4.7 µM | 18.8 µM | 9.4 µM | 1.5 nM | 34 nM | 8.1 nM | – | – | – | – | –
17 | CCC[C@H](C(=O)O)[C@H](Cc1cccc(N(C)CCN(C)C)c1)c1nn[nH]n1 [Example 361, (2S)-2-[(1S)-2-(3-{[2-(dimethylamino)ethyl] (methyl)amino}phenyl)-1-(2H-tetrazol-5-yl)ethyl]pentanoic acid] | – | 25 µM | 150 µM | 29 nM | 8700 nM | 390 nM | – | – | – | – | – | – | – | – | – | 38 µM | –
18 | CC(C)[C@H](C(=O)O)[C@H](Cc1ccc(C2CCNCC2)nc1)c1nnn[nH]1 [Example 104, (2S,3S)-2-isopropyl-4-(6-(piperidin-4-yl)pyridin-3-yl)-3-(1H-tetrazol-5-yl)butanoic acid] | – | – | – | – | – | – | – | 18.8 µM | 37 µM | 14 nM | 7000 nM | 180 nM | – | – | – | – | 3.1 µM
19 | CCC[C@H](C(=O)O)[C@H](Cc1cnc(SC)nc1)c1nnn[nH]1 [Example 285, (S)-2-((S)-2-(2-(methylthio)pyrimidin-5-yl)-1-(1H-tetrazol-5-yl)ethyl)pentanoic acid] | – | 25 µM | >200 µM | 3.3 nM | 14000 nM | 190 nM | – | – | – | – | – | – | – | – | – | 25 µM | –
